# Legend:
# [1] = tested on: mouse neural stem cells (NSCs); experiment: Promoting activity in oligodendrocyte differentiation of mouse neural stem cell (GalC immunostaining); format: cell-based; conditions: day 10, N=5
# Experimental: To NSC basal medium (100 mL) included in this product, B27 (1 mL), Penicillin-Streptomycin (1 mL), Glutamine (1 mL), bFGF (20 μL), EGF (10 μL), and Heparin (100 μL) were added to prepare the growth medium. Mouse neural stem cells were reconstituted in a T-25 flask using the growth medium and proliferated as a neurosphere by suspension culture. The cells were expanded by passaging at a split ratio=1:2 in a CO2 incubator (5% CO2, 37° C., wet) to obtain the required number of cells. ACCUTASE (Innovative Cell Technologies, Cat. No. AT104) was used as the passage reagent.
# The differentiation medium containing test substance was prepared to a target final concentration by diluting a solution of 20 mM compound in DMSO to 10-fold with DMSO and then to 2×10^5-fold with the differentiation medium. Additive-free differentiation medium for control was prepared by diluting DMSO to 2×10^5-fold with the differentiation medium to be a final concentration of 5×10^−5%.
# The mouse neural stem cells were seeded on a poly-L-Lysine/Laminin-coated 96-well plate at a cell density of 2.0×10^4 cells/100 μL/well using the differentiation medium and the culture was started in a CO2 incubator (5% CO2, 37° C., wet). The next day, the medium was replaced with the differentiation medium containing a test substance or an additive-free differentiation medium for control, and evaluation of the test substance (N=5) was started (day 0). The medium was replaced every other day by 60% of the medium in the wells. On day 10, cells were fixed and immunostained.
# After the medium was removed, the cells were fixed by adding 100 μL of 4% paraformaldehyde-PBS and being incubated at room temperature for 30 minutes. Next, the cells were washed 3 times with PBS, 100 μL of 5% Goat Serum/PBS was added thereto, and the mixture was incubated at room temperature for 30 minutes to perform blocking and membrane permeation treatment. […] After the cells were washed 3 times with PBS, 100 μL of PBS was added to the wells, and the wells were photographed with fluorescence microscopy. Images were taken under the same condition in all wells, and blue fluorescence and green fluorescence were simultaneously photographed.
# Using the hybrid cell counting software provided in the fluorescence microscope (Keyence, BZ-X700), co-localized spots of green fluorescence and blue fluorescence were extracted, and the number of these spots was defined as the total number of GalC-positive cells, and the oligodendrocyte differentiation ratio was calculated by the following calculation:the total number of GalC-positive cells/the number of nuclei (number of blue fluorescence spots). A significant difference test was performed by t-test between the additive-free group and the sample-added group.
# [2] = Evaluation of brain penetration in mice (blood and brain concentration at brain Cmax); format: in vivo, mouse; conditions: 1 mg/kg single oral dose, C57BL/6J mice
# Outline: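 Male C57BL/6J mice (8 weeks, n=3) dosed orally once at 1 […] mg/kg; plasma and brain collected at 0.25, 0.5, 1, 2, 4 and 8 h. Compound extracted with acetonitrile from brain homogenate and plasma, quantified by LC/MS/MS.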
# mouse cuprizone model = experiment: Myelin regeneration promoting action in mouse cuprizone model (LFB staining of corpus callosum); format: in vivo; conditions: 20 μg/kg oral once a day, 4 weeks after 6 weeks cuprizone diet; untreated = 100%
# Description: C57BL/6J mice (8 weeks old, male) were fed a diet containing 0.3% cuprizone (bis(cyclohexanone)oxaldihydrazone) (Research Diets, Inc. #D17042709) for 6 weeks to induce demyelination. Subsequently, the mice were divided into groups of 8 mice based on the body weight, the diet was switched to a cuprizone-free diet (Research Diets, Inc. #D10001), and administration of the test compound or vehicle was started. […] After administration of 4 weeks, the mice were euthanized, perfused with a 4% paraformaldehyde solution, and then brain sampling was performed. The brain sample obtained was embedded in paraffin to prepare a coronal section specimen at Bregma+1. The specimen was stained with Luxor Fast Blue (LFB) to visualize the myelin sheath, and images were acquired using a fluorescence microscope (KEYENCE #BZ-X710). The corpus callosum area and the LFB staining positive area in the corpus callosum of the obtained pathological specimen image were measured using an image analysis application (KEYENCE #BZ-H3C/BZ-H3XD), and the ratio (LFB staining positive area in the corpus callosum/corpus callosum area) was calculated. The intact group is a non-pathogenic group, and the […] control group were sampled after feeding the diet containing 0.3% cuprizone for 6 weeks.
# In the table, the ratio of LFB staining positive area in the corpus callosum/corpus callosum area of the untreated group, fed with the cuprizone-free diet for 6 weeks, was regarded as 100%. As a result, the control group, fed with the cuprizone-containing diet for 6 weeks, decreased the ratio to 23.6%, and was confirmed to progress demyelination. The group, in which the cuprizone-containing diet was fed for 6 weeks and switched to the cuprizone-free diet, and the vehicle was administered, improved the ratio of area of LFB staining positive/area of corpus callosum to 50.1%. […] In addition, GSK239512 described in WO2013/107336 pamphlet was evaluated in the test to show the ratio of LFB staining positive area/corpus callosum area of 45.8%, in which no demyelination regeneration promoting action was shown as compared with the vehicle-administered group.
smiles,measurement,setting,value
"C[C@H](CCN1CCOCC1)[C@H]1CC[C@H]2/C(=C/C=C3C[C@@H](O)C[C@H](O)C3)CCC[C@]12C [Compound D023, (1R,3R)-5-(2-((1R,3aS,7aR,E)-7a-methyl-1-((R)-4-morpholinobutan-2-yl)octahydro-4H-inden-4-ylidene)ethylidene)cyclohexane-1,3-diol]",Gal/C positive ratio Average value,[1]; 10 nM,8.63
same,Gal/C positive ratio Average value,[1]; 100 nM,11.51
same,Gal/C positive ratio Average value,[1]; 1000 nM,12.19
same,Concentration in blood (mean ± SD) at brain Cmax,[2]; n=3,0.58 ± 0.107 µM
same,Concentration in brain (mean ± SD) at brain Cmax,[2]; n=3,595 ± 23 pmol/g
same,Kp,"[2]; male, C57BL/6J, mouse, brain/plasma, po, 1 mg/kg, read-out: Concentration in brain/in blood ratio at brain Cmax",1.03
same,"Ratio (%): area of LFB staining positive/area of corpus callosum, mean",mouse cuprizone model,87.0%

# Source: US20230348376A1 (TEIJIN PHARMA LIMITED, priority 2020, published 2023)
